Measurements: ChEMBL document CHEMBL2434896, “Carbonic anhydrase inhibitors. Synthesis of heterocyclic 4-substituted pyridine-3-sulfonamide derivatives and their inhibition of the human cytosolic isozymes I and II and transmembrane tumor-associated isozymes IX and XII” (Eur J Med Chem, 2013)
The source made the active and inactive calls. The calls are words filed in the database; no cut-off is given here.

What was measured:
[1] = test system: 786-0; experiment: Growth inhibition of human 786-0 cells at 10 uM after 48 hrs by sulforhodamine B assay; format: functional
[2] = test system: NCI-H522; experiment: Growth inhibition of human NCI-H522 cells at 10 uM after 48 hrs by sulforhodamine B assay; format: functional
[3] = test system: EKVX; experiment: Growth inhibition of human EKVX cells at 10 uM after 48 hrs by sulforhodamine B assay; format: functional
[4] = test system: SK-MEL-28; experiment: Growth inhibition of human SK-MEL-28 cells at 10 uM after 48 hrs by sulforhodamine B assay; format: functional, cell-based
[5] = test system: NCI-H23; experiment: Growth inhibition of human NCI-H23 cells at 10 uM after 48 hrs by sulforhodamine B assay; format: functional
[6] = test system: MDA-MB-231; experiment: Growth inhibition of human MDA-MB-231 cells at 10 uM after 48 hrs by sulforhodamine B assay; format: functional
[7] = test system: SK-MEL-5; experiment: Growth inhibition of human SK-MEL-5 cells at 10 uM after 48 hrs by sulforhodamine B assay; format: functional
[8] = test system: A549; experiment: Growth inhibition of human A549/ATCC cells at 10 uM after 48 hrs by sulforhodamine B assay; format: functional
[9] = test system: SF-268; experiment: Growth inhibition of human SF268 cells at 10 uM after 48 hrs by sulforhodamine B assay; format: functional
[10] = test system: IGROV-1; experiment: Growth inhibition of human IGROV1 cells at 10 uM after 48 hrs by sulforhodamine B assay; format: functional
[11] = test system: M14; experiment: Growth inhibition of human M14 cells at 10 uM after 48 hrs by sulforhodamine B assay; format: functional; conditions: M14, 48 h, read-out: GI
[12] = test system: NCI-H322M; experiment: Growth inhibition of human NCI-H322M cells at 10 uM after 48 hrs by sulforhodamine B assay; format: functional; conditions: read-out: GI
[13] = test system: UACC-62; experiment: Growth inhibition of human UACC62 cells at 10 uM after 48 hrs by sulforhodamine B assay; format: functional
[14] = test system: BT-549; experiment: Growth inhibition of human BT549 cells at 10 uM after 48 hrs by sulforhodamine B assay; format: functional
[15] = test system: OVCAR-3; experiment: Growth inhibition of human OVCAR3 cells at 10 uM after 48 hrs by sulforhodamine B assay; format: functional
[16] = test system: SK-MEL-2; experiment: Growth inhibition of human SK-MEL-2 cells at 10 uM after 48 hrs by sulforhodamine B assay; format: functional
[17] = test system: SW-620; experiment: Growth inhibition of human SW620 cells at 10 uM after 48 hrs by sulforhodamine B assay; format: functional
[18] = test system: HCT-15; experiment: Growth inhibition of human HCT15 cells at 10 uM after 48 hrs by sulforhodamine B assay; format: functional; conditions: HCT-15, 48 h, read-out: GI
[19] = test system: U-251; experiment: Growth inhibition of human U251 cells at 10 uM after 48 hrs by sulforhodamine B assay; format: functional
[20] = test system: NCI/ADR-RES; experiment: Growth inhibition of human NCI-ADR-RES cells at 10 uM after 48 hrs by sulforhodamine B assay; format: functional
[21] = test system: TK-10; experiment: Growth inhibition of human TK10 cells at 10 uM after 48 hrs by sulforhodamine B assay; format: functional
[22] = test system: SF-295; experiment: Growth inhibition of human SF295 cells at 10 uM after 48 hrs by sulforhodamine B assay; format: functional
[23] = test system: RXF 393; experiment: Growth inhibition of human RXF393 cells at 10 uM after 48 hrs by sulforhodamine B assay; format: functional
[24] = test system: HOP-62; experiment: Growth inhibition of human HOP62 cells at 10 uM after 48 hrs by sulforhodamine B assay; format: functional
[25] = test system: MCF7; experiment: Growth inhibition of human MCF7 cells at 10 uM after 48 hrs by sulforhodamine B assay; format: functional; conditions: MCF7, 48 h, read-out: GI
[26] = test system: COLO 205; experiment: Growth inhibition of human COLO205 cells at 10 uM after 48 hrs by sulforhodamine B assay; format: functional
[27] = test system: A498; experiment: Growth inhibition of human A498 cells at 10 uM after 48 hrs by sulforhodamine B assay; format: functional
[28] = test system: HL-60(TB); experiment: Growth inhibition of human HL-60(TB) cells at 10 uM after 48 hrs by sulforhodamine B assay; format: functional
[29] = test system: HCC 2998; experiment: Growth inhibition of human HCC2998 cells at 10 uM after 48 hrs by sulforhodamine B assay; format: functional
[30] = test system: SF-539; experiment: Growth inhibition of human SF539 cells at 10 uM after 48 hrs by sulforhodamine B assay; format: functional
[31] = test system: RPMI-8226; experiment: Growth inhibition of human RPMI8226 cells at 10 uM after 48 hrs by sulforhodamine B assay; format: functional
[32] = test system: SNB-75; experiment: Growth inhibition of human SNB75 cells at 10 uM after 48 hrs by sulforhodamine B assay; format: functional
[33] = test system: SN12C; experiment: Growth inhibition of human SN12C cells at 10 uM after 48 hrs by sulforhodamine B assay; format: functional
[34] = test system: MOLT-4; experiment: Growth inhibition of human MOLT4 cells at 10 uM after 48 hrs by sulforhodamine B assay; format: functional; conditions: MOLT-4, 48 h, read-out: GI
[35] = test system: T47D; experiment: Growth inhibition of human T47D cells at 10 uM after 48 hrs by sulforhodamine B assay; format: functional
[36] = test system: OVCAR-5; experiment: Growth inhibition of human OVCAR5 cells at 10 uM after 48 hrs by sulforhodamine B assay; format: functional
[37] = test system: PC-3; experiment: Growth inhibition of human PC3 cells at 10 uM after 48 hrs by sulforhodamine B assay; format: functional
[38] = test system: HT-29; experiment: Growth inhibition of human HT-29 cells at 10 uM after 48 hrs by sulforhodamine B assay; format: functional
[39] = test system: CAKI-1; experiment: Growth inhibition of human CAKI-1 cells at 10 uM after 48 hrs by sulforhodamine B assay; format: functional; conditions: CAKI-1, 48 h, read-out: GI
[40] = test system: HCT-116; experiment: Growth inhibition of human HCT116 cells at 10 uM after 48 hrs by sulforhodamine B assay; format: functional; conditions: HCT-116, 48 h, read-out: GI
[41] = test system: SNB-19; experiment: Growth inhibition of human SNB19 cells at 10 uM after 48 hrs by sulforhodamine B assay; format: functional
[42] = test system: KM12; experiment: Growth inhibition of human KM12 cells at 10 uM after 48 hrs by sulforhodamine B assay; format: functional
[43] = test system: LOX IMVI; experiment: Growth inhibition of human LOXIMVI cells at 10 uM after 48 hrs by sulforhodamine B assay; format: functional
[44] = molecular target: Carbonic anhydrase 9 (Homo sapiens, UniProt Q16790); experiment: Inhibition of human carbonic anhydrase 9 after 15 mins by stopped flow CO2 hydration assay
[45] = test system: NCI-H460; experiment: Growth inhibition of human NCI-H460 cells at 10 uM after 48 hrs by sulforhodamine B assay; format: functional
[46] = test system: SR; experiment: Growth inhibition of human SR cells at 10 uM after 48 hrs by sulforhodamine B assay; format: functional; conditions: read-out: GI
[47] = test system: UACC-257; experiment: Growth inhibition of human UACC257 cells at 10 uM after 48 hrs by sulforhodamine B assay; format: functional
[48] = test system: MDA-MB-435; experiment: Growth inhibition of human MDA-MB-435 cells at 10 uM after 48 hrs by sulforhodamine B assay; format: functional
[49] = test system: OVCAR-8; experiment: Growth inhibition of human OVCAR8 cells at 10 uM after 48 hrs by sulforhodamine B assay; format: functional; conditions: OVCAR-8, 48 h, read-out: GI
[50] = test system: UO-31; experiment: Growth inhibition of human UO31 cells at 10 uM after 48 hrs by sulforhodamine B assay; format: functional; conditions: UO-31, 48 h, read-out: GI
[51] = test system: ACHN; experiment: Growth inhibition of human ACHN cells at 10 uM after 48 hrs by sulforhodamine B assay; format: functional
[52] = test system: DU-145; experiment: Growth inhibition of human DU145 cells at 10 uM after 48 hrs by sulforhodamine B assay; format: functional
[53] = test system: Hs-578T; experiment: Growth inhibition of human Hs 578T cells at 10 uM after 48 hrs by sulforhodamine B assay; format: functional
[54] = test system: OVCAR-4; experiment: Growth inhibition of human OVCAR4 cells at 10 uM after 48 hrs by sulforhodamine B assay; format: functional
[55] = test system: SK-OV-3; experiment: Growth inhibition of human SKOV3 cells at 10 uM after 48 hrs by sulforhodamine B assay; format: functional
[56] = test system: CCRF-CEM; experiment: Growth inhibition of human CCRF-CEM cells at 10 uM after 48 hrs by sulforhodamine B assay; format: functional
[57] = test system: NCI-H226; experiment: Growth inhibition of human NCI-H226 cells at 10 uM after 48 hrs by sulforhodamine B assay; format: functional
[58] = test system: Malme-3M; experiment: Growth inhibition of human MALME-3M cells at 10 uM after 48 hrs by sulforhodamine B assay; format: functional; conditions: read-out: GI

## NS(=O)(=O)c1cnccc1N1CCN(c2ccccc2F)CC1
[1]
  growth inhibition (GI): inactive
[2]
  growth inhibition (GI): inactive
[3]
  growth inhibition (GI): inactive
[4]
  growth inhibition (GI): inactive
[5]
  growth inhibition (GI): inactive
[6]
  growth inhibition (GI): inactive
[7]
  growth inhibition (GI): inactive
[8]
  growth inhibition (GI): inactive
[9]
  growth inhibition (GI): inactive
[10]
  growth inhibition (GI): inactive
[11]
  inhibition of growth at 10 µM: 5%
[12]
  inhibition of growth at 10 µM: 7%
[13]
  growth inhibition (GI): inactive
[14]
  growth inhibition (GI): inactive
[15]
  growth inhibition (GI): inactive
[16]
  growth inhibition (GI): inactive
[17]
  growth inhibition (GI): inactive
[18]
  inhibition of growth at 10 µM: 1%
[19]
  growth inhibition (GI): inactive
[20]
  growth inhibition (GI): inactive
[21]
  growth inhibition (GI): inactive
[22]
  growth inhibition (GI): inactive
[23]
  growth inhibition (GI): inactive
[24]
  growth inhibition (GI): inactive
[25]
  inhibition of growth at 10 µM: 6%
[26]
  growth inhibition (GI): inactive
[27]
  growth inhibition (GI): inactive
[28]
  growth inhibition (GI): inactive
[29]
  growth inhibition (GI): inactive
[30]
  growth inhibition (GI): inactive
[31]
  growth inhibition (GI): inactive
[32]
  growth inhibition (GI): inactive
[33]
  growth inhibition (GI): inactive
[34]
  inhibition of growth at 10 µM: 2%
[35]
  growth inhibition (GI): inactive
[36]
  growth inhibition (GI): inactive
[37]
  growth inhibition (GI): inactive
[38]
  growth inhibition (GI): inactive
[39]
  inhibition of growth at 10 µM: 3%
[40]
  inhibition of growth at 10 µM: 3%
[41]
  growth inhibition (GI): inactive
[42]
  growth inhibition (GI): inactive
[43]
  growth inhibition (GI): inactive
[44]
  Ki: 0.148 µM
[45]
  growth inhibition (GI): inactive
[46]
  inhibition of growth at 10 µM: 6%
[47]
  growth inhibition (GI): inactive
[48]
  growth inhibition (GI): inactive
[49]
  inhibition of growth at 10 µM: 2%
[50]
  inhibition of growth at 10 µM: 13%
[51]
  growth inhibition (GI): inactive
[52]
  growth inhibition (GI): inactive
[53]
  growth inhibition (GI): inactive
[54]
  growth inhibition (GI): inactive
[55]
  growth inhibition (GI): inactive
[56]
  growth inhibition (GI): inactive
[57]
  growth inhibition (GI): inactive
[58]
  inhibition of growth at 10 µM: 4%

## Cc1cc(C)n(-c2ccncc2S(N)(=O)=O)n1
[44]
  Ki: 0.0248 µM
